Experimental data as given in US9790178B2, “Pyrrolidinyl urea, thiourea, guanidine and cyanoguanidine compounds as TrkA kinase inhibitors” (Array BioPharma Inc., priority 2012, dated 2017).

Columns and labels:
Assay in all cases: KinaseProfiler off-target kinase profiling
Format in all cases: biochemical
Settings in all cases: 10 μM, ATP near Km
IR = target: T1, IR (Homo sapiens, UniProt P06213)
T1 construct: purchased Millipore, Inc. (KinaseProfiler service)
Summary of the method: (§1)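 Single-point screen, 10 μM compound, n=2; ATP ≈ Km per kinase. Read-out: POC, mean of duplicates.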

TAO2 = target: T2, TAO2 (Homo sapiens, UniProt Q9UL54)
T2 construct: purchased Millipore, Inc. (KinaseProfiler service)
Summary of the method: as §1

Pim-1 = target: T3, Pim-1 (Homo sapiens, UniProt P11309)
T3 construct: purchased Millipore, Inc. (KinaseProfiler service)
Summary of the method: as §1

RIPK2 = target: T4, RIPK2 (Homo sapiens, UniProt O43353)
T4 construct: purchased Millipore (KinaseProfiler service)
Summary of the method: as §1

KDR = target: T5, KDR (Homo sapiens, UniProt P35968)
T5 construct: purchased Millipore, Inc. (KinaseProfiler service)
Summary of the method: as §1

Mer = target: T6, Mer (Homo sapiens, UniProt Q12866)
T6 construct: purchased Millipore, Inc. (KinaseProfiler service)
Summary of the method: as §1

FGFR4 = target: T7, FGFR4 (Homo sapiens, UniProt P22455)
T7 construct: purchased Millipore, Inc. (KinaseProfiler service)
Summary of the method: as §1

Lyn = target: T8, Lyn (Homo sapiens, UniProt P07948)
T8 construct: purchased Millipore, Inc. (KinaseProfiler service)
Summary of the method: as §1

Fer = target: T9, Fer (Homo sapiens, UniProt P16591)
T9 construct: purchased Millipore, Inc. (KinaseProfiler service)
Summary of the method: as §1

VRK2 = target: T10, VRK2 (Homo sapiens, UniProt Q86Y07)
T10 construct: purchased Millipore, Inc. (KinaseProfiler service)
Summary of the method: as §1

mTOR/FKBP12 = target: T11, mTOR/FKBP12 (Homo sapiens, UniProt P42345)
T11 construct: purchased Millipore, Inc. (KinaseProfiler service)
Summary of the method: as §1

CDK3/cyclinE = target: T12, CDK3/cyclinE (Homo sapiens, UniProt Q00526)
T12 construct: purchased Millipore, Inc. (KinaseProfiler service)
Summary of the method: as §1

ALK = target: T13, ALK (Homo sapiens, UniProt Q9UM73)
T13 construct: purchased Millipore, Inc. (KinaseProfiler service)
Summary of the method: as §1

SGK1 = target: T14, SGK1 (Homo sapiens, UniProt O00141, S422D)
T14 construct: purchased Millipore, Inc. (KinaseProfiler service)
Summary of the method: as §1

MST3 = target: T15, MST3 (Homo sapiens, UniProt Q9Y6E0)
T15 construct: purchased Millipore, Inc. (KinaseProfiler service)
Summary of the method: as §1

Fes = target: T16, Fes (Homo sapiens, UniProt P07332)
T16 construct: purchased Millipore, Inc. (KinaseProfiler service)
Summary of the method: as §1

AKT1 = target: T17, AKT1 (Homo sapiens, UniProt P31749)
T17 construct: purchased Millipore, Inc. (KinaseProfiler service)
Summary of the method: as §1

TAO3 = target: T18, TAO3 (Homo sapiens, UniProt Q9H2K8)
T18 construct: purchased Millipore, Inc. (KinaseProfiler service)
Summary of the method: as §1

EphA8 = target: T19, EphA8 (Homo sapiens, UniProt P29322)
T19 construct: purchased Millipore, Inc. (KinaseProfiler service)
Summary of the method: as §1

Plk1 = target: T20, Plk1 (Homo sapiens, UniProt P53350)
T20 construct: purchased Millipore (KinaseProfiler service)
Summary of the method: as §1

DAPK2 = target: T21, DAPK2 (Homo sapiens, UniProt Q9UIK4)
T21 construct: purchased Millipore, Inc. (KinaseProfiler service)
Summary of the method: as §1

IKKbeta = target: T22, IKKbeta (Homo sapiens, UniProt O14920)
T22 construct: purchased Millipore, Inc. (KinaseProfiler service)
Summary of the method: as §1

PAK3 = target: T23, PAK3 (Homo sapiens, UniProt O75914)
T23 construct: purchased Millipore, Inc. (KinaseProfiler service)
Summary of the method: as §1

CAMK4 = target: T24, CAMK4 (Homo sapiens, UniProt Q16566)
T24 construct: purchased Millipore, Inc. (KinaseProfiler service)
Summary of the method: as §1

TSSK1 = target: T25, TSSK1 (Homo sapiens, UniProt Q9BXA7)
T25 construct: purchased Millipore, Inc. (KinaseProfiler service)
Summary of the method: as §1

CDK7/cyclinH/MAT1 = target: T26, CDK7/cyclinH/MAT1 (Homo sapiens, UniProt P50613)
T26 construct: purchased Millipore, Inc. (KinaseProfiler service)
Summary of the method: as §1

ROCK-I = target: T27, ROCK-I (Homo sapiens, UniProt Q13464)
T27 construct: purchased Millipore (KinaseProfiler service)
Summary of the method: as §1

DDR2 = target: T28, DDR2 (Homo sapiens, UniProt Q16832)
T28 construct: purchased Millipore, Inc. (KinaseProfiler service)
Summary of the method: as §1

MARK1 = target: T29, MARK1 (Homo sapiens, UniProt Q9P0L2)
T29 construct: purchased Millipore, Inc. (KinaseProfiler service)
Summary of the method: as §1

Rsk2 = target: T30, Rsk2 (Homo sapiens, UniProt P51812)
T30 construct: purchased Millipore (KinaseProfiler service)
Summary of the method: as §1

Fyn = target: T31, Fyn (Homo sapiens, UniProt P06241)
T31 construct: purchased Millipore, Inc. (KinaseProfiler service)
Summary of the method: as §1

IGF-1R = target: T32, IGF-1R (Homo sapiens, UniProt P08069)
T32 construct: purchased Millipore, Inc. (KinaseProfiler service)
Summary of the method: as §1

PDK1 = target: T33, PDK1 (Homo sapiens, UniProt O15530)
T33 construct: purchased Millipore, Inc. (KinaseProfiler service)
Summary of the method: as §1

MARK2 = target: T34, MARK2 (Homo sapiens, UniProt Q7KZI7)
T34 construct: purchased Millipore, Inc. (KinaseProfiler service)
Summary of the method: as §1

ERK2 = target: T35, ERK2 (Homo sapiens, UniProt P28482)
T35 construct: purchased Millipore, Inc. (KinaseProfiler service)
Summary of the method: as §1

Plk3 = target: T36, Plk3 (Homo sapiens, UniProt Q9H4B4)
T36 construct: purchased Millipore (KinaseProfiler service)
Summary of the method: as §1

SIK = target: T37, SIK (Homo sapiens, UniProt P57059)
T37 construct: purchased Millipore, Inc. (KinaseProfiler service)
Summary of the method: as §1

Met = target: T38, Met (Homo sapiens, UniProt P08581)
T38 construct: purchased Millipore, Inc. (KinaseProfiler service)
Summary of the method: as §1

Fms = target: T39, Fms (Homo sapiens, UniProt P07333)
T39 construct: purchased Millipore, Inc. (KinaseProfiler service)
Summary of the method: as §1

Rse = target: T40, Rse (Homo sapiens, UniProt Q06418)
T40 construct: purchased Millipore (KinaseProfiler service)
Summary of the method: as §1

ALK4 = target: T41, ALK4 (Homo sapiens, UniProt P36896)
T41 construct: purchased Millipore, Inc. (KinaseProfiler service)
Summary of the method: as §1

T40 sequence (Q06418 41-890): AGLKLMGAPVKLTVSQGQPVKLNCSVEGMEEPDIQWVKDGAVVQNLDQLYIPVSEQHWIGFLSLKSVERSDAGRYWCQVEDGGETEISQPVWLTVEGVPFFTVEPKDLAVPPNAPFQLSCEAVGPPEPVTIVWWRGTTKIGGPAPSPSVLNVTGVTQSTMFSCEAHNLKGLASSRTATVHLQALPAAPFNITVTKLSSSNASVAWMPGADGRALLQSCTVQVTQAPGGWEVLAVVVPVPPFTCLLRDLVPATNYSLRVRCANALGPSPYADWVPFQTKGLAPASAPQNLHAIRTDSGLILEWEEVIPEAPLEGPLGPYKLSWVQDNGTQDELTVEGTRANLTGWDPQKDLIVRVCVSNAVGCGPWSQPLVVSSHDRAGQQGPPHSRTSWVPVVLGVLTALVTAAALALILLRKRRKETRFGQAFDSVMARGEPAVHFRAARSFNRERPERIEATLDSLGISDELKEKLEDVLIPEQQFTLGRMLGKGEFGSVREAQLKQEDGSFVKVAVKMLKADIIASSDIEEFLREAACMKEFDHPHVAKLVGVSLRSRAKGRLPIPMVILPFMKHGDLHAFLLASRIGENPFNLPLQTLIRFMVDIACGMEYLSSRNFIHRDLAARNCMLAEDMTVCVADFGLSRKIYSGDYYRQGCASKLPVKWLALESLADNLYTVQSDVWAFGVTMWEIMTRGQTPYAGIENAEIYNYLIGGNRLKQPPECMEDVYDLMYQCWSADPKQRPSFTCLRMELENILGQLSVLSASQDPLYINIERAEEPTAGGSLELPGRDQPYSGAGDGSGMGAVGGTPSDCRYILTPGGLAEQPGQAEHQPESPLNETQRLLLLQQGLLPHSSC
T3 sequence (P11309 whole entry): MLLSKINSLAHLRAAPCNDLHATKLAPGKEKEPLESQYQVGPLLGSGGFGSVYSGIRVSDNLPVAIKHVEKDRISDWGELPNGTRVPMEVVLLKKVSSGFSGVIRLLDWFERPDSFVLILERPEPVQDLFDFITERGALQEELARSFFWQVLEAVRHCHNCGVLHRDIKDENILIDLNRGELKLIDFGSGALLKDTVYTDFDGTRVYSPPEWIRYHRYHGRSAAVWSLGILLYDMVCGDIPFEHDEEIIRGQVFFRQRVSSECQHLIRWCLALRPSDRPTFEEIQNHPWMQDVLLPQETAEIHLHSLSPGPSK
T38 sequence (P08581 25-1390): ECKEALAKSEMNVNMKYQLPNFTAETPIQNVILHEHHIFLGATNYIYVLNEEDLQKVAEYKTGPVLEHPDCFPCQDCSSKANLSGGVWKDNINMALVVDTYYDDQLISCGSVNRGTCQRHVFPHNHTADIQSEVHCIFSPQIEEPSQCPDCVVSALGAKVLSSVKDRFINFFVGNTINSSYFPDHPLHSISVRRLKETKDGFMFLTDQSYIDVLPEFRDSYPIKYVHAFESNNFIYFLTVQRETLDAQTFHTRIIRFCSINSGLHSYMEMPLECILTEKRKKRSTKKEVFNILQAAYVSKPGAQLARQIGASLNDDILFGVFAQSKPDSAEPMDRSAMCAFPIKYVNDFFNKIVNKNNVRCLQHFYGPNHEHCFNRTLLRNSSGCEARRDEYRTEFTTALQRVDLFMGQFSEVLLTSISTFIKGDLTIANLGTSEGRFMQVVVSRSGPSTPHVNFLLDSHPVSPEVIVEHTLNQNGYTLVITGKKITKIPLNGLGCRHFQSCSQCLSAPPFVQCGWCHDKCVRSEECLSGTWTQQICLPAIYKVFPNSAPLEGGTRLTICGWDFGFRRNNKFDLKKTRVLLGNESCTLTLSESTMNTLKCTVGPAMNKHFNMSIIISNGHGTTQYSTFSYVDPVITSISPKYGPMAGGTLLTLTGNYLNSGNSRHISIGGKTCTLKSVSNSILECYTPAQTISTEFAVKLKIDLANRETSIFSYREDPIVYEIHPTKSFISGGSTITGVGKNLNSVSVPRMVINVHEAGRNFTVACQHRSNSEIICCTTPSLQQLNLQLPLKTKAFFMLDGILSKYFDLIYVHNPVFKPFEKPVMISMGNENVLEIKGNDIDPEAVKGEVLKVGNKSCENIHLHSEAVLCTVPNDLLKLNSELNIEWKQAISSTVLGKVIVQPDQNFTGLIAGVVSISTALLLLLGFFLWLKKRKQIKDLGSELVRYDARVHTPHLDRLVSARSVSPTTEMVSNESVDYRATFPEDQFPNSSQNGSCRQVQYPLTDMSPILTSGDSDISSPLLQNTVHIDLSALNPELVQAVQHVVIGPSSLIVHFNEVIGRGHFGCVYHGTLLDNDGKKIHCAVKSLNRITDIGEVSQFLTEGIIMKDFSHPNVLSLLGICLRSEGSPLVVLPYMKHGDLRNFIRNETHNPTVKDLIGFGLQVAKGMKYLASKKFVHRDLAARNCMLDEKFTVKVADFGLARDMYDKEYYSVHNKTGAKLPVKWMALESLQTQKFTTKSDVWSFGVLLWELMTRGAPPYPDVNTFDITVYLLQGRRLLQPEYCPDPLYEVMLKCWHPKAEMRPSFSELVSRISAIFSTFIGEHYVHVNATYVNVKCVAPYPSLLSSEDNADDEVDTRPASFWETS
T19 sequence (P29322 28-1005): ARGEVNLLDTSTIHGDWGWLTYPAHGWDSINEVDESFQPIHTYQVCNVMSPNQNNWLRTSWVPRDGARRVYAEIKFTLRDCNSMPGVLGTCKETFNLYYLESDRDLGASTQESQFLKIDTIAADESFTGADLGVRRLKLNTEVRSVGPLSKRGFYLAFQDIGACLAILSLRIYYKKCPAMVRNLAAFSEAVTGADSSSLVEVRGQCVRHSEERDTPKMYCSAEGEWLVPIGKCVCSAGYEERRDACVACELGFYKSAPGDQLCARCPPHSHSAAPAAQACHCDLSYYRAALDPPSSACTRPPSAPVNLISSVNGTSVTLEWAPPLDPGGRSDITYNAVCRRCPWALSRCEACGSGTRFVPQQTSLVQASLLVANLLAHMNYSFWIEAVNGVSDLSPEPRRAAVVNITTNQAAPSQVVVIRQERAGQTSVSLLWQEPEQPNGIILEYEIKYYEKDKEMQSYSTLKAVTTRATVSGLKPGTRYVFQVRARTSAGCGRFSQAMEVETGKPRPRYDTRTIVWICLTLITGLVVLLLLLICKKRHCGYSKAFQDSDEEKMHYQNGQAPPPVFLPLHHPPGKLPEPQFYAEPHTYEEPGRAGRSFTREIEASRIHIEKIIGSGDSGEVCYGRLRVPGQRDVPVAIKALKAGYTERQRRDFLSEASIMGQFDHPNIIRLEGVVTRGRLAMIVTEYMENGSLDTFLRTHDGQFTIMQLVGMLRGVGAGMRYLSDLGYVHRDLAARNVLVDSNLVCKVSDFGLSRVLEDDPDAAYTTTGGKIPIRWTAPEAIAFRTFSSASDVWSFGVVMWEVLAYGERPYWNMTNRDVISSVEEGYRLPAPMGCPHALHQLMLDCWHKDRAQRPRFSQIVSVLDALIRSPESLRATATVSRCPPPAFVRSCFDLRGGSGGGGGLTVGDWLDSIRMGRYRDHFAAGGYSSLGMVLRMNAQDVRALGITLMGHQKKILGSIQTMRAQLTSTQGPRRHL
T10 sequence (Q86Y07 whole entry): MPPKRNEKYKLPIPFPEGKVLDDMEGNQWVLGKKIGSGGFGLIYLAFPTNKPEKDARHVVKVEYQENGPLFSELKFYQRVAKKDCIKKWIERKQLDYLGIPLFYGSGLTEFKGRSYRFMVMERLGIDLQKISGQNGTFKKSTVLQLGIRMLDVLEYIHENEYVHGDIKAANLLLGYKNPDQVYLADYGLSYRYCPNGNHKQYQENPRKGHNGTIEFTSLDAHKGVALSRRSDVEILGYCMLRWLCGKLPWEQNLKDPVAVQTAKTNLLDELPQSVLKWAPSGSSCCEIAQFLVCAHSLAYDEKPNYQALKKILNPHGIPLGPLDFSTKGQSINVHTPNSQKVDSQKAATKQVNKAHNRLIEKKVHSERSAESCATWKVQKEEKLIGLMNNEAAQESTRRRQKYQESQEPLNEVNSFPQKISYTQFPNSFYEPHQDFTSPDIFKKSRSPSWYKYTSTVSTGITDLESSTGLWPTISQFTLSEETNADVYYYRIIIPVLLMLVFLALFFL
T23 sequence (O75914 whole entry): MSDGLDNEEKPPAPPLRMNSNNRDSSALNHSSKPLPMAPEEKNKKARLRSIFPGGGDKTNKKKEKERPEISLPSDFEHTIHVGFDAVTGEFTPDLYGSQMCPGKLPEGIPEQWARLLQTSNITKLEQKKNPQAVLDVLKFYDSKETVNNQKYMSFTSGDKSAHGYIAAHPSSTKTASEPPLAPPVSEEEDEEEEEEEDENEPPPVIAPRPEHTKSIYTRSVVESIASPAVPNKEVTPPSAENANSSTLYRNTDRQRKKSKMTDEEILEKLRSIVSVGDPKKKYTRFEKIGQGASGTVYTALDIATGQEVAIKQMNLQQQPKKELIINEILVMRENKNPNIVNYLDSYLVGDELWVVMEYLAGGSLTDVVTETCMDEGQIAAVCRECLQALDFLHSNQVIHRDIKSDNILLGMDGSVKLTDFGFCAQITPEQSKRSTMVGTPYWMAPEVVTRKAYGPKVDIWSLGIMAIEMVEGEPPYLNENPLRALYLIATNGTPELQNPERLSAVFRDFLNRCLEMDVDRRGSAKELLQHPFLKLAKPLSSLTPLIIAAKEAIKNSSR
T14 sequence (O00141 60-431 S422D limits assumed): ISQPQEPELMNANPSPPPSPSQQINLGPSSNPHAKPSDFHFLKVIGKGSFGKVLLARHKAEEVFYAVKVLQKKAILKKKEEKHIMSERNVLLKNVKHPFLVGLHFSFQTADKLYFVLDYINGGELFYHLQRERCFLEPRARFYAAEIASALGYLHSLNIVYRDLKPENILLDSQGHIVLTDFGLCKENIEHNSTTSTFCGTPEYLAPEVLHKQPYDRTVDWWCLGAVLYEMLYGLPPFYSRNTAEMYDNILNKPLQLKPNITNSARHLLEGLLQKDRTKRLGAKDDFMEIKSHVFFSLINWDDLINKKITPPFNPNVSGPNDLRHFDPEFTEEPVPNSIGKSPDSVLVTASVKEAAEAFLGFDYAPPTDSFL

With COCCN1C[C@@H](NC(=O)Nc2c(-c3ccccc3)nc3c(C)nccn23)[C@H](c2ccc(F)c(F)c2)C1 [Example 20, 1-((3S,4R)-4-(3,4-difluorophenyl)-1-(2-methoxyethyl)pyrrolidin-3-yl)-3-(8-methyl-2-phenylimidazo[1,2-a]pyrazin-3-yl)urea] the “Avg. POC” value (IR) was 87.5 POC, the “Avg. POC” value (TAO2) was 104.5 POC and the “Avg. POC” value (Pim-1) was 105 POC. For the same compound, the “Avg. POC” value (RIPK2) was 97.5 POC, the “Avg. POC” value (KDR) was 107 POC and the “Avg. POC” value (Mer) was 116.5 POC. The “Avg. POC” value (FGFR4) was 90 POC, the “Avg. POC” value (Lyn) was 104.5 POC and the “Avg. POC” value (Fer) was 91.5 POC. For the same compound, the “Avg. POC” value (VRK2) was 117.5 POC, the “Avg. POC” value (mTOR/FKBP12) was 110.5 POC and the “Avg. POC” value (CDK3/cyclinE) was 111 POC. For the same compound, the “Avg. POC” value (ALK) was 114 POC, the “Avg. POC” value (SGK1) was 119 POC and the “Avg. POC” value (MST3) was 104 POC. For the same compound, the “Avg. POC” value (Fes) was 113.5 POC, the “Avg. POC” value (AKT1) was 109 POC and the “Avg. POC” value (TAO3) was 103 POC. The “Avg. POC” value (EphA8) was 98.5 POC, the “Avg. POC” value (Plk1) was 104 POC and the “Avg. POC” value (DAPK2) was 104 POC. The “Avg. POC” value (IKKbeta) was 107.5 POC, the “Avg. POC” value (PAK3) was 219.5 POC and the “Avg. POC” value (CAMK4) was 105 POC. For the same compound, the “Avg. POC” value (TSSK1) was 107 POC, the “Avg. POC” value (CDK7/cyclinH/MAT1) was 101.5 POC and the “Avg. POC” value (ROCK-I) was 95.5 POC. The “Avg. POC” value (DDR2) was 106 POC, the “Avg. POC” value (MARK1) was 103.5 POC and the “Avg. POC” value (Rsk2) was 110.5 POC. The “Avg. POC” value (Fyn) was 128.5 POC, the “Avg. POC” value (IGF-1R) was 73 POC and the “Avg. POC” value (PDK1) was 119.5 POC. For the same compound, the “Avg. POC” value (MARK2) was 98 POC, the “Avg. POC” value (ERK2) was 96 POC and the “Avg. POC” value (Plk3) was 99.5 POC. The “Avg. POC” value (SIK) was 97.5 POC, the “Avg. POC” value (Met) was 110 POC and the “Avg. POC” value (Fms) was 87.5 POC. For the same compound, the “Avg. POC” value (Rse) was 102.5 POC and the “Avg. POC” value (ALK4) was 98.5 POC.
